# Data from patent US10160771B2, “Hepatitis C virus inhibitors and uses thereof in preparation of drugs” (priority 2014, dated 2018).
# How the values were obtained:
# [1] = system: HCV genotype 1b (HCV-1b) replicon cells; test: HCV genotype 1b replicon luciferase assay (EC50); assay type: cell-based, hepatitis C virus genotype 1b (Con1 clone); conditions: Hepatitis C virus, 72 h, 3 days, luciferase (Bright-Glo)
# Experimental: (§1) The EC50 and CC50 values of anti-HCV compounds were determined by HCV genotype 1a (HCV-1a) and 1B (HCV-1b) stable transfer replication (replicon) cells. The source of genotype 1a replicon is H77 clones containing K1691R, K2040R and S2204I adaptive mutations. The source of genotype 1b replicon is Con1 clones containing E1202G, T1280I and K1846T adaptive mutations.
# (§2) HCV 1a (HCV-1a) and 1b (HCV-1b) gene subtype replicon system contains the related HCV gene subtype non structural protein gene, G418 resistance gene NEO and luciferase gene, which results in that HCV related protein and luciferase can be stably expressed in cells. By detecting the level of expression of luciferase gene, the level of HCV replication can be determined. Therefore, the system is used as a model for screening the activity of anti-HCV compound in vitro.
# (§3) HCV Replicon Cell Lines: HCV-1a and HCV-1b Cells
# (§4) The compound powder was dissolved in 100% DMSO. Then the compound was diluted 5 times with 6 points, and added into the cell plate with Echo liquid handler. Ensure the final concentration of DMSO was 0.5%. Each compound was tested in double holes. Maximum initial concentration was 100, 10 or 1 nM, 5 times dilution, 6 points.
# (§5) b) Cell Culture (HCV-1a or HCV-1b Replicon Cell):
# (§6) 1) absorbing the culture supernatant of the cell culture and washing the cells with 10 mL PBS.
# (§7) 2) adding preheated pancreatin to the washed cell culture flasks, rotating culture bottle to make the bottom of the culture bottle uniformly covered by pancreatin, then placed into 37° C., 5% CO2 incubator to digest.
# (§8) 3) suspending cells in each T150 culture flask with 10-15 mL culture medium, absorbing 0.1 mL liquid and diluting 2 times by trypan blue solution as counted.
# (§9) 4) diluting cells to 8×10^4/mL with the culture medium, adding the diluted cells into the compound-containing 96-well plate (Greiner, Cat.#655090) (100 μL/well, 8000 cells/well) with automatic liquid separator (Thermo Scientific). Then place into a 37° C., 5% CO2 incubator for 3 days. Cell control well: no compound, only containing 0.5% DMSO.
# (§10) 6) then adding luciferase luminescence substrate Bright-Glo, after incubation for 5 minutes, detecting the luciferase activity by chemical luminescence detection system Envison (wavelength>700 nm); analyzing the anti-HCV inhibitory activity of the compounds according to luciferase data, which was used to calculate EC50 values.
# (§11) The EC50 or CC50 values were obtained by nonlinear fitting analysis on inhibition percentage (inh %) data with GraphPad Prism software.
# [2] = Cell Titer-fluor cell activity assay in HCV-1b replicon cells (CC50); assay type: cell-based
# Experimental: as §1, §3, §4, §5, §6, §7, §8, §9
# 5) adding chemiluminescent substrate Cell Titer-fluor to the cell well, after incubation for 30 minutes, detecting the signal by chemiluminescence detection system Envison (Ex at 405 nm and read at 515 nm). The effect of the compounds on the activity of HCV replicon cells was analyzed according to the luminescence data, which was used to calculate the CC50 values.
# as §11
# [3] = system: HCV genotype 1a (HCV-1a) replicon cells; test: HCV genotype 1a replicon luciferase assay (EC50); assay type: cell-based, hepatitis C virus genotype 1a (H77 clone); conditions: Hepatitis C virus, 72 h, 3 days, luciferase (Bright-Glo)
# Experimental: as §1, §2, §3, §4, §5, §6, §7, §8, §9, §10, §11
SMILES,EC50 [1] [nM],CC50 at 3 days [2] [nM],EC50 [3] [nM]
COC(=O)N[C@H](C(=O)N1CCC[C@H]1c1ncc(-c2ccc(-c3ccc(-c4cnc(C5CCCC[C@@H]5C(=O)N(NC(=O)OC)C(C)C)[nH]4)c(F)c3)cc2)[nH]1)C(C)C (some centres unmarked) [AA_118],1 to 10,> 10,
COC(=O)N[C@H](C(=O)N1CCC[C@H]1c1ncc(-c2ccc(-c3ccc(-c4cnc(C5CCC[C@H]5C(=O)NC(C)C)[nH]4)cc3)cc2)[nH]1)C(C)C (some centres unmarked) [AA_028],1 to 10,> 100,
COC(=O)N[C@H](C(=O)N1CCC[C@H]1c1ncc(-c2ccc(-c3ccc(-c4cnc(C5CCCC5C(=O)N(NC(=O)OC)C(C)C)[nH]4)cc3)cc2)[nH]1)C(C)C (some centres unmarked) [AA_008],1 to 10,> 100,
COC(=O)N[C@H](C(=O)N1CCC[C@H]1c1ncc(-c2ccc(-c3ccc(-c4cnc([C@@H]5[C@H]6CC[C@H](C6)[C@H]5C(=O)NN5CC[C@@H](C)C5=O)[nH]4)cc3)cc2)[nH]1)C(C)C [AA_295_ENDOA2_A],0.101 to 1,,10 to 100
COC(=O)N[C@H](C(=O)N1CCC[C@H]1c1ncc(-c2ccc(-c3ccc(-c4cnc([C@@H]5[C@H]6CC[C@H](C6)[C@H]5C(=O)N(Cc5cccnc5)C(C)C)[nH]4)cc3)cc2)[nH]1)C(C)C [AA_285_ENDOA2],0.001 to 0.1,,1 to 10
COC(=O)N[C@H](C(=O)N1CCC[C@H]1c1ncc(-c2ccc(-c3ccc(-c4cnc([C@@H]5[C@H]6CC[C@H](C6)[C@H]5C(=O)NCc5ccc(F)nc5)[nH]4)cc3)cc2)[nH]1)C(C)C [AA_214_ENDOA2],0.001 to 0.1,,1 to 10
COC(=O)N[C@H](C(=O)N1CCC[C@H]1c1ncc(-c2ccc(-c3ccc(-c4cnc([C@@H]5[C@H]6CC[C@H](C6)[C@H]5C(=O)NNC(C)=O)[nH]4)cc3)cc2)[nH]1)C(C)C [AA_289_ENDOA2],0.101 to 1,,10 to 100
COC(=O)N[C@H](C(=O)N1CCC[C@H]1c1ncc(-c2ccc(-c3ccc(-c4ccc(C5CCCC5C(=O)NCc5cccnc5)[nH]4)cc3)cc2)[nH]1)[C@@H](C)OC (some centres unmarked) [AG_096],0.001 to 0.1,,10 to 100
COC(=O)N[C@H](C(=O)N1CCC[C@H]1c1ncc(-c2ccc(-c3ccc(-c4cnc([C@@H]5[C@H]6CC[C@H](C6)[C@H]5C(=O)NCc5cncc(F)c5)[nH]4)cc3)cc2)[nH]1)C(C)C [AA_287_ENDOA2],0.001 to 0.1,,0.101 to 1
COC(=O)N[C@H](C(=O)N1CCC[C@H]1c1ncc(-c2ccc(-c3ccc(-c4cnc([C@@H]5[C@H]6CC[C@H](C6)[C@H]5C(=O)N[C@H](C(=O)OC)C(C)C)[nH]4)cc3)cc2)[nH]1)C(C)C [AA_282_ENDOA2],0.001 to 0.1,,1 to 10
COC(=O)N[C@H](C(=O)N1CCC[C@H]1c1ncc(-c2ccc(-c3ccc(-c4cnc([C@@H]5C6CCC(C6)[C@H]5C(=O)NC5(C(=O)NCC(F)F)CCCCC5)[nH]4)cc3)cc2)[nH]1)C(C)C (some centres unmarked) [AA_275],0.001 to 0.1,,10 to 100
COC(=O)N[C@H](C(=O)N1CCC[C@H]1c1ncc(-c2ccc(-c3ccc(-c4cnc([C@@H]5[C@H]6CC[C@H](C6)[C@H]5C(=O)NCc5nccn5C)[nH]4)cc3)cc2)[nH]1)C(C)C [AA_288_ENDOA2],0.001 to 0.1,,1 to 10
COC(=O)N[C@@H](COC(C)(C)C)C(=O)N1CCC[C@H]1c1ncc(-c2ccc(-c3ccc(-c4ccc([C@@H]5CCCN5C(=O)[C@@H](NC(=O)OC)C(C)C)[nH]4)cc3)cc2)[nH]1 [AG_098],0.001 to 0.1,,1 to 10
COC(=O)N[C@H](C(=O)N1CCC[C@H]1c1ncc(-c2ccc(-c3ccc(-c4cnc([C@@H]5C6CCC(C6)[C@H]5C(=O)NCC(=O)NCC(F)F)[nH]4)cc3)cc2)[nH]1)C(C)C (some centres unmarked) [AA_277],0.001 to 0.1,,0.101 to 1
COC(=O)N[C@H](C(=O)N1CCC[C@H]1c1ncc(-c2ccc(-c3ccc(-c4cnc([C@@H]5[C@H]6CC[C@H](C6)[C@H]5C(N)=O)[nH]4)cc3)cc2)[nH]1)C(C)C [AA_284_ENDOA2],0.001 to 0.1,,10 to 100
COC(=O)N[C@H](C(=O)N1CCC[C@H]1c1ncc(-c2ccc(-c3ccc(-c4cnc([C@@H]5[C@H]6CC[C@H](C6)[C@H]5C(=O)N[C@@H](C(=O)c5ccccc5)C(C)C)[nH]4)cc3)cc2)[nH]1)C(C)C [AA_293_ENDOA2],0.001 to 0.1,,1 to 10
COC(=O)NN(C(=O)C1=C(c2ncc(-c3ccc(-c4ccc(-c5cnc(C6=C(C(=O)N(NC(=O)OC)C(C)C)CCC6)[nH]5)cc4)cc3)[nH]2)CCC1)C(C)C [AA_033],10 to 100,,10 to 100
COC(=O)N[C@H](C(=O)N1CCC[C@H]1c1ncc(-c2ccc(-c3ccc(-c4cnc([C@@H]5[C@H]6CC[C@H](C6)[C@H]5C(=O)N[C@@H](C)c5nccs5)[nH]4)cc3)cc2)[nH]1)C(C)C [AA_279_ENDOA2_A],0.001 to 0.1,,0.101 to 1
COC(=O)N[C@H](C(=O)N1CCC[C@H]1c1ncc(-c2ccc(-c3ccc(-c4cnc([C@@H]5[C@H]6CC[C@H](C6)[C@H]5C(=O)NCc5ncc(C)[nH]5)[nH]4)cc3)cc2)[nH]1)C(C)C [AA_291_ENDOA2],0.001 to 0.1,,1 to 10
CCOC(=O)[C@@H](NC(=O)[C@@H]1[C@@H]2CC[C@@H](C2)[C@H]1c1ncc(-c2ccc(-c3ccc(-c4cnc([C@@H]5CCCN5C(=O)[C@@H](NC(=O)OC)C(C)C)[nH]4)cc3)cc2)[nH]1)C(C)C [AA_297_ENDOA2],0.101 to 1,,10 to 100
COC(=O)NN(C(=O)[C@@H]1C2C=CC(C2)C1c1ncc(-c2ccc(-c3ccc(-c4cnc(C5C6C=CC(C6)[C@@H]5C(=O)N(NC(=O)OC)C(C)C)[nH]4)cc3)cc2)[nH]1)C(C)C (some centres unmarked) [AA_034],10 to 100,,10 to 100
COC(=O)N[C@H](C(=O)N1CCC[C@H]1c1cc(Cl)c(-c2ccc(-c3ccc(-c4cnc([C@@H]5CCCN5C(=O)[C@@H](NC(=O)OC)[C@@H](C)OC)[nH]4)cc3)cc2)[nH]1)[C@@H](C)OC [AG_095],0.001 to 0.1,,0.101 to 1
COC(=O)CNC(=O)C1(NC(=O)[C@@H]2C3CCC(C3)[C@H]2c2ncc(-c3ccc(-c4ccc(-c5cnc([C@@H]6CCCN6C(=O)[C@@H](NC(=O)OC)C(C)C)[nH]5)cc4)cc3)[nH]2)CCCCC1 (some centres unmarked) [AA_278],0.101 to 1,,10 to 100
COC(=O)N[C@H](C(=O)N1CCC[C@H]1c1ccc(-c2ccc(-c3ccc(-c4cnc([C@@H]5CCCN5C(=O)[C@@H](NC(=O)OC)[C@@H](C)O)[nH]4)cc3)cc2)[nH]1)C(C)C [AG_099],0.101 to 1,,1 to 10
COC(=O)N[C@H](C(=O)N1CCC[C@H]1c1ncc(-c2ccc(-c3ccc(-c4cnc([C@@H]5[C@H]6CC[C@H](C6)[C@H]5C(=O)N[C@H](C)c5nccs5)[nH]4)cc3)cc2)[nH]1)C(C)C [AA_279_ENDOA2_B],0.001 to 0.1,,1 to 10
COC(=O)N[C@H](C(=O)N1CCC[C@H]1c1ncc(-c2ccc(-c3ccc(-c4cnc([C@@H]5[C@H]6CC[C@H](C6)[C@H]5C(=O)NN5CC[C@H](C)C5=O)[nH]4)cc3)cc2)[nH]1)C(C)C [AA_295_ENDOA2_B],0.101 to 1,,10 to 100
COC(=O)N[C@H](C(=O)N1CCC[C@H]1c1ncc(-c2ccc(-c3ccc(-c4cnc([C@@H]5[C@H]6CC[C@H](C6)[C@H]5C(=O)N[C@H](C)c5cccnc5F)[nH]4)cc3)cc2)[nH]1)C(C)C [AA_283_ENDOA2_A],0.001 to 0.1,,1 to 10
COC(=O)N[C@H](C(=O)N1CCC[C@H]1c1ncc(-c2ccc(-c3ccc(-c4cnc([C@@H]5[C@H]6CC[C@H](C6)[C@H]5C(=O)N[C@H](C(=O)NCc5cccnc5)C(C)C)[nH]4)cc3)cc2)[nH]1)C(C)C [AA_296_ENDOA2],0.101 to 1,,1 to 10
